Reference: patent US11518764B2, “Substituted heteroaryls as inhibitors of the BCL6 BTB domain protein-protein interaction” (Ontario Institute for Cancer Research (OICR), priority 2018, dated 2022)

What was measured:
[1] = test system: Karpas422 cells; test: Tumor cell growth inhibition assay; format: cell-based; settings: Homo sapiens, KARPAS-422, 144 h, read-out: Tumor Growth Inhibition in Karpas-422 (IC50, uM), Karpas422 cells, six days, ATPlite
Outline: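 Growth inhibition was measured by ATPlite luminescence after six days of culture at 37° C. in 5% CO2. Karpas422 cells were seeded at 2,000 per well in Alpha-MEM plus 10% FBS. Compounds were given as a 10-point concentration series with a highest dose of 5 uM.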

[2] = target: BCL6 BTB domain (Homo sapiens (Human), UniProt P41182); test: Surface plasmon resonance (SPR) assay; format: binding; settings: BCL6 BTB domain captured on SA chip, single cycle kinetics
[3] = test system: BCL6 reporter construct (3xBCL6-TK-Luc) in SuDHL4 cells; test: Cell-based luciferase assay; settings: Homo sapiens, SU-DHL-4, 48 h, read-out: Luciferase-Assay EC50, uM), SuDHL4-3xBCL6-TK-Luc cells, two days, high dose 10 uM
Outline: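 SuDHL4 cells stably carrying a 3×BCL6-site TK-promoter firefly luciferase reporter, seeded at 15,000 cells/well, were dosed over a 10-point range (top 10 uM) and grown two days at 37 °C, 5% CO2. Luminescence then read after adding neolite reagent at room temperature.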

Row | SMILES | IC50 [1] | Kd [2] | EC50 [3]
1 | CC(C1CC1)N1CCN(c2cc(NC(=O)Cn3cc(-c4cc(F)c(O)c(C(N)=O)c4)c4c(=O)n(C)cnc43)c(Cl)cn2)[C@@H](C)C1 (stereo partly drawn) [Compound I-391] | 0.0726 µM | 7.26 nM | 0.0672 µM
2 | CC(C1CC1)N1CCN(c2cc(NC(=O)Cn3cc(-c4cc(Cl)c(O)c(C(N)=O)c4)c4c(=O)n(C)cnc43)c(Cl)cn2)[C@@H](C)C1 (stereo partly drawn) [Compound I-392] | 0.072 µM | 15.5 nM | 0.178 µM
3 | CC(C1CC1)N1CCN(c2cc(NC(=O)Cn3cc(-c4cc(C(N)=O)c(O)c(F)c4F)c4c(=O)n(C)cnc43)c(Cl)cn2)[C@@H](C)C1 (stereo partly drawn) [Compound I-393] | 0.222 µM | 33.6 nM | 0.266 µM
4 | CCCN1CCN(c2cc(NC(=O)Cn3cc(-c4cc(C(N)=O)c(O)c(F)c4F)c4c(=O)n(C)cnc43)c(Cl)cn2)[C@@H](C)C1 [Compound I-394] | 0.269 µM | 38.4 nM | 0.313 µM
5 | CN1CCOC2CN(c3cc(NC(=O)Cn4cc(-c5cc(Cl)c(O)c(C(N)=O)c5)c5c(=O)n(C)c(C(F)(F)F)nc54)c(Cl)cn3)CC21 (stereo not drawn) [Compound I-395] | 0.669 µM | 48.3 nM | 0.168 µM
6 | CN1CC2CCC(C1)N2c1cc(NC(=O)Cn2cc(-c3cc(Cl)c(O)c(C(N)=O)c3)c3c(=O)n(C)c(C(F)(F)F)nc32)c(Cl)cn1 [Compound I-396] | 0.749 µM | 226 nM | 0.683 µM
7 | C[C@H]1COCCN1c1cc(NC(=O)Cn2cc(-c3cc(C(N)=O)c(O)c(F)c3F)c3c(=O)n(C)cnc32)c(F)cn1 [Compound I-397] | 2.54 µM | 98.3 nM | 3.31 µM
8 | COc1ccc(Cl)c(NC(=O)Cn2cc(-c3cc(Cl)c(O)c(C(N)=O)c3)c3c(=O)n(C)cnc32)c1 [Compound I-398] | 1.3 µM | 82.7 nM | 2.6 µM
9 | CO[C@@H]1CN(c2cc(NC(=O)Cn3cc(-c4cc(Cl)c(O)c(C(N)=O)c4)c4c(=O)n(C)c(C)nc43)c(Cl)c(F)n2)C[C@@H]1F [Compound I-399] | 0.535 µM | 30.7 nM | 0.268 µM
10 | CO[C@H]1CN(c2cc(NC(=O)Cn3cc(-c4cc(Cl)c(O)c(C(N)=O)c4)c4c(=O)n(C)c(C)nc43)c(Cl)c(F)n2)C[C@H]1F [Compound I-400] | 0.408 µM | 27.8 nM | 0.204 µM
11 | CO[C@H]1CN(c2cc(NC(=O)Cn3cc(-c4cc(Cl)c(O)c(C(N)=O)c4)c4c(=O)n(C)c(C)nc43)c(Cl)cn2)C[C@H]1F [Compound I-401] | 1.22 µM | 28.9 nM | 0.427 µM
12 | CO[C@@H]1CN(c2cc(NC(=O)Cn3cc(-c4cc(Cl)c(O)c(C(N)=O)c4)c4c(=O)n(C)c(C)nc43)c(Cl)cn2)C[C@@H]1F [Compound I-402] | 0.714 µM | 28 nM | 0.18 µM
13 | CN1CCOC2(CCN(c3cc(NC(=O)Cn4cc(-c5cc(C(N)=O)c(O)c(F)c5F)c5c(=O)n(C)cnc54)c(Cl)cn3)C2)C1 (stereo not drawn) [Compound I-403] | 3.32 µM | 81.9 nM | 5.54 µM
14 | Cn1cnc2c(c(-c3cc(C(N)=O)c(O)c(F)c3F)cn2CC(=O)Nc2cc(N3CCOCC3)ncc2F)c1=O [Compound I-404] | 10 µM | 106 nM | 4.06 µM
15 | C[C@H]1CN(Cc2ccco2)CCN1c1cc(NC(=O)Cn2cc(-c3cc(C(N)=O)c(O)c(F)c3F)c3c(=O)n(C)cnc32)c(Cl)cn1 [Compound I-405] | 0.254 µM | 32.6 nM | 0.459 µM
16 | Cc1ccc(CN2CCN(c3cc(NC(=O)Cn4cc(-c5cc(C(N)=O)c(O)c(F)c5F)c5c(=O)n(C)cnc54)c(Cl)cn3)[C@@H](C)C2)s1 [Compound I-406] | 4.32 µM | 574 nM | 3.06 µM
17 | C[C@H]1CN(CC2(C#N)CC2)CCN1c1cc(NC(=O)Cn2cc(-c3cc(C(N)=O)c(O)c(F)c3F)c3c(=O)n(C)cnc32)c(Cl)cn1 [Compound I-407] | 0.377 µM | 23.6 nM | 0.783 µM
18 | C[C@H]1CN(CC2CCC2)CCN1c1cc(NC(=O)Cn2cc(-c3cc(C(N)=O)c(O)c(F)c3F)c3c(=O)n(C)cnc32)c(Cl)cn1 [Compound I-408] | 0.463 µM | 38.2 nM | 0.759 µM
19 | C[C@H]1COCCN1c1cc(NC(=O)Cn2cc(-c3cc(C(N)=O)c(O)c(Cl)c3F)c3c(=O)n(C)cnc32)c(Cl)c(F)n1 [Compound I-409] | 1.82 µM | 95.2 nM | 2.34 µM

Row | SMILES | IC50 [1] | Kd [2] | EC50 [3]
20 | COc1c(O)c(C(N)=O)cc(-c2cn(CC(=O)Nc3cc(N4CCOC[C@@H]4C)nc(F)c3Cl)c3ncn(C)c(=O)c23)c1F [Compound I-411] | 1.12 µM | 46.2 nM | 0.771 µM
21 | C[C@H]1CN(C2COC2)CCN1c1cc(NC(=O)Cn2cc(-c3cc(Cl)c(O)c(C(N)=O)c3)c3c(=O)n(C)cnc32)c(Cl)c(F)n1 [Compound I-413] | 0.0822 µM | 6.15 nM | 0.06 µM
22 | COCCN1CCN(c2cc(NC(=O)Cn3cc(-c4cc(C(N)=O)c(O)c(F)c4F)c4c(=O)n(C)cnc43)c(Cl)cn2)[C@@H](C)C1 [Compound I-414] | 0.455 µM | 17.9 nM | 0.374 µM
23 | COCCN1CCN(c2cc(NC(=O)Cn3cc(-c4cc(Cl)c(O)c(C(N)=O)c4)c4c(=O)n(C)cnc43)c(Cl)cn2)[C@@H](C)C1 [Compound I-415] | 0.122 µM | 5.95 nM | 0.0872 µM
24 | COCCN1CCN(c2cc(NC(=O)Cn3cc(-c4cc(F)c(O)c(C(N)=O)c4)c4c(=O)n(C)cnc43)c(Cl)cn2)[C@@H](C)C1 [Compound I-416] | 0.0592 µM | 2.73 nM | 0.0787 µM
25 | Cn1cnc2c(c(-c3cc(C(N)=O)c(O)c(F)c3F)cn2CC(=O)Nc2cc(N3CCCC3)nc(F)c2Cl)c1=O [Compound I-417] | 0.441 µM | 21.7 nM | 0.478 µM
26 | Cn1cnc2c(c(-c3cc(Cl)c(O)c(C(N)=O)c3)cn2CC(=O)Nc2cc(N3CCCC3)nc(F)c2Cl)c1=O [Compound I-418] | 0.303 µM | 22.1 nM | 0.663 µM
27 | Cn1cnc2c(c(-c3cc(F)c(O)c(C(N)=O)c3)cn2CC(=O)Nc2cc(N3CCCC3)nc(F)c2Cl)c1=O [Compound I-419] | 0.22 µM | 5.85 nM | 0.348 µM
28 | CN(C)c1cc(NC(=O)Cn2cc(-c3cc(C(N)=O)c(O)c(F)c3F)c3c(=O)n(C)cnc32)c(Cl)c(F)n1 [Compound I-420] | 0.383 µM | 16.3 nM | 0.429 µM
29 | CN(C)c1cc(NC(=O)Cn2cc(-c3cc(Cl)c(O)c(C(N)=O)c3)c3c(=O)n(C)cnc32)c(Cl)c(F)n1 [Compound I-421] | 0.154 µM | 14.7 nM | 0.154 µM
30 | CN(C)c1cc(NC(=O)Cn2cc(-c3cc(F)c(O)c(C(N)=O)c3)c3c(=O)n(C)cnc32)c(Cl)c(F)n1 [Compound I-423] | 0.0391 µM | 5.06 nM | 0.143 µM
31 | C[C@@H](C1CC1)N1CCN(c2cc(NC(=O)Cn3cc(-c4cc(C(N)=O)c(O)c(F)c4F)c4c(=O)n(C)cnc43)c(Cl)cn2)[C@@H](C)C1 [Compound I-424] | 0.157 µM | 26.1 nM | 0.309 µM
32 | C[C@H](C1CC1)N1CCN(c2cc(NC(=O)Cn3cc(-c4cc(C(N)=O)c(O)c(F)c4F)c4c(=O)n(C)cnc43)c(Cl)cn2)[C@@H](C)C1 [Compound I-425] | 0.624 µM | 44.7 nM | 0.629 µM
33 | CCN1CCN(c2cc(NC(=O)Cn3cc(-c4cc(C(N)=O)c(O)c(F)c4F)c4c(=O)n(C)cnc43)c(Cl)c(F)n2)[C@@H](C)C1 [Compound I-426] | 0.128 µM | 17.7 nM | 0.226 µM
34 | CCN1CCN(c2cc(NC(=O)Cn3cc(-c4cc(Cl)c(O)c(C(N)=O)c4)c4c(=O)n(C)cnc43)c(Cl)c(F)n2)[C@@H](C)C1 [Compound I-427] | 0.114 µM | 13.8 nM | 0.156 µM
35 | CCN1CCN(c2cc(NC(=O)Cn3cc(-c4cc(F)c(O)c(C(N)=O)c4)c4c(=O)n(C)cnc43)c(Cl)c(F)n2)[C@@H](C)C1 [Compound I-428] | 0.0682 µM | 2.35 nM | 0.102 µM
36 | Cc1nc2c(c(-c3cc(C(N)=O)c(O)c(F)c3F)cn2CC(=O)Nc2cc(N3CCN(C4COC4)C[C@@H]3C)nc(F)c2Cl)c(=O)n1C [Compound I-429] | 0.154 µM | 10.9 nM | 0.162 µM
37 | C[C@H]1CN(C)CCN1c1cc(NC(=O)Cn2cc(-c3cc(F)c(O)c(C(N)=O)c3)c3c(=O)n(CCC(=O)c4cnn(C)c4)cnc32)c(Cl)c(F)n1 [Compound I-430, (S)-5-(7-(2-((3-chloro-6-(2,4-dimethylpiperazin-1-yl)-2-fluoropyridin-4-yl)amino)-2-oxoethyl)-3-(3-(1-methyl-1H-pyrazol-4-yl)-3-oxopropyl)-4-oxo-4,7-dihydro-3H-pyrrolo[2,3-d]pyrimidin-5-yl)-3-fluoro-2-hydroxybenzamide] | 0.38 µM | 23.2 nM | 0.622 µM
38 | CCN1CCN(c2cc(NC(=O)Cn3cc(-c4cc(Cl)c(O)c(C(N)=O)c4)c4c(=O)n(C)c(C)nc43)c(Cl)cn2)[C@@H](C)C1 [Compound I-431] | 0.175 µM | 30.7 nM | 0.193 µM
